In patent publication US7939494B2, “Method for administering GLP-1 molecules” (Emisphere Technologies, Inc., priority 2002, dated 2011):
Read-outs that look alike come from different tables or passages of the source. One block for each molecule: values may come before it. No end group written: not given here.

Assays:
[1] = Pharmacokinetics of GLP-1 compound after oral gavage with delivery agent (subcutaneous control); format: in vivo, Male Sprague Dawley rats; settings: rat
Protocol: A solution of Val^8-Glu^22-GLP-1 was prepared by dissolving the GLP-1 compound in distilled water to yield a concentration of 7 mg/mL. The pH was slowly raised to 10.5 with 2 N NaOH, followed by incubation at room temperature for 30 minutes. A volume of 1 M Tris buffer, pH 8.0 was added to give a final buffer concentration 20 mM Tris, and the pH adjusted to pH 7.8 with 1 N or 5 N HCl. The solution was then filtered through a low protein binding […] syringe filter (Millex GV, Millipore) and the concentration of the GLP-1 compound was determined by UV spectroscopy. The solution was diluted to a final concentration of 5.5 mg/mL using 20 mM Tris buffer, pH 7.8. The peptide solution was then stored in 1.0 mL aliquots at −70° C. until used.
Final formulations were freshly prepared approximately 30 minutes to 1 hour prior to in vivo dosing by combining 4.5 mL of the delivery agent with 0.5 mL of the GLP-1 compound. The final formulations were dosed by oral gavage at 2 mL/kg (1.1 mg/kg GLP-1 compound, 300 mg/kg delivery agent) with to Male Sprague Dawley rats that were fasted for 12 hours prior to dosing. A subcutaneous dose of the GLP-1 compound alone was used as a control (0.011 mg/kg).

[2] = Mean particle size of delivery agent suspension (Coulter LS Particle Size Analyzer); format: physicochemical; settings: suspension in 4% w/v Klucel
Protocol: (§1) Approximately 1.7 mL of suspending agent was added to a Type I glass vial containing 300 mg of delivery agent number 9. The preparation was cooled on ice for 3 minutes, followed by probe sonication on ice for 30 minutes using a Misonix Sonicator® Ultrasonic Processor XL ( 3/16th inch microtip). […] The formulation was then diluted to 150 mg/mL with the suspending agent.

[3] = Stability studies of delivery agents, HPLC after three days storage; format: physicochemical; settings: prepared at 150 mg/mL
Protocol: Stability studies were conducted for delivery agent numbers 9, 15, and 40. The delivery agents were freshly prepared as described above respectively to achieve the desired concentration of 150 mg/mL. The samples were divided into three 2 mL aliquots and stored at −20° C., 4° C., and ambient for three days. HPLC assay development and analyses were performed at the end of the storage period.

[4] = Solubility of delivery agents at desired formulation concentration; format: physicochemical; settings: for solubility at the desired concentration of 150 mg/mL: 0.1 N NaOH base, further base to pH 11.5, and cosolvents
Protocol: Approximately 600 mg of delivery agent number 15 was weighed into Type I glass vials to which 3 mL of base (0.1 N NaOH, pH 12.7) was added to achieve a final concentration of 200 mg/mL. The pH was adjusted to 7.1 and the concentration was estimated to be 171 mg/mL. Delivery agent number 15 was then diluted to 150 mg/mL with Milli-Q® water.
Delivery agents number 40 and 9 were insoluble at the desired concentration of 150 mg/mL when followed example 1. […] Cosolvents tested included ethanol, N-methylpyrrolidone, N,N-dimethylacetamide, N,N-dimethylformamide, glycofurol, ethoxydiol, propylene glycol, polyethyleneglycol 300, and polyvinylpyrrolidone.
However, for delivery agent number 40, 150 mg was weighed into a Type I vial, to which 1 mL of Milli-Q® water was added, and the pH adjusted with 10 N NaOH.
as §1

[5] = Peptide A 1.1 mg/kg + delivery agent 300 mg/kg, oral gavage, Tris solution
[6] = Peptide A 1.1 mg/kg + delivery agent 300 mg/kg, oral gavage, Tris suspension
[7] = stored at ambient for three days
[8] = stored at −20° C. for three days
[9] = Peptide A 1.1 mg/kg + delivery agent 300 mg/kg, oral gavage, Klucel suspension
[10] = Val8-Glu22-GLP-1 1.1 mg/kg + delivery agent 300 mg/kg, oral gavage, solution
[11] = Peptide A alone, no delivery agent, Tris solution, subcutaneous control 0.011 mg/kg

Molecule: O=C(O)CCCCCCCNC(=O)c1ccccc1 [Delivery agent 2]
AUC [1, 5]: 7202 pg·min/mL

Molecule: CN(CCCCCCCC(=O)O)C(=O)c1ccccc1 [Delivery agent 3]
AUC [1, 5]: 237422.3 pg·min/mL

Molecule: O=C(O)CCCCCCCNC(=O)c1ccccc1O [Delivery agent 5]
AUC [1, 6]: 40984 pg·min/mL

Molecule: O=C(O)CCCCCCCCCNC(=O)c1ccccc1O [Delivery agent 6]
AUC [1, 6]: 37926 pg·min/mL

Molecule: CN(C)CCCCCCNC(=O)c1ccccc1O [Delivery agent 7]
AUC [1, 5]: 204611 pg·min/mL

Molecule: CN(CCCCCCCC(=O)O)C(=O)c1ccccc1O [Delivery agent 8]
AUC [1, 5]: 173548.6 pg·min/mL

Molecule: O=C(O)CCCCCCCNC(=O)c1cc(Cl)ccc1O [Delivery agent 9]
AUC ([1]; Val8-Glu22-GLP-1 1.1 mg/kg + delivery agent 300 mg/kg, oral gavage, Klucel suspension): 28144 ± 38576 pg·min/mL
mean particle size before sonication [2]: 48 μm
mean particle size after sonication ([2]; probe sonication 30 minutes, pH 7.98): 8 μm
Stability Data: delivery agent concentration ([3]; stored at 4° C. for three days): 148.6 mg/mL
Stability Data: delivery agent concentration [3, 7]: 146.0 mg/mL
Stability Data: delivery agent concentration [3, 8]: 153.2 mg/mL
solubility at the desired concentration of 150 mg/mL [4]: insoluble
aqueous solubility ([4]; aqueous): aqueous insolubility

Molecule: Cc1cccc(C(=O)NCCCCCCCC(=O)[O-])c1[O-].[Na+].[Na+] [Delivery agent 12]
AUC [1, 9]: 35239 pg·min/mL

Molecule: COc1cc(O)ccc1C(=O)NCCCCCCCC(=O)O [Delivery agent 14]
AUC [1, 5]: 160066.6 pg·min/mL

Molecule: COc1ccc(C(=O)NCCCCCCCC(=O)[O-])c([O-])c1.[Na+].[Na+] [Delivery agent 15]
AUC [1, 5]: 254291 pg·min/mL
AUC ([1]; Peptide B + delivery agent, oral gavage, Tris solution): 82656 pg·min/mL
AUC [1, 10]: 254291 ± 129387 pg·min/mL
Stability Data: delivery agent concentration ([3]; stored at 4° C. for three days): 138.2 mg/mL
Stability Data: delivery agent concentration [3, 7]: 137.4 mg/mL
Stability Data: delivery agent concentration [3, 8]: 135.5 mg/mL

Molecule: COc1ccc(C(=O)NCCCCCCCN(C)C)c(O)c1 [Delivery agent 16]
AUC [1, 9]: 19972 pg·min/mL

Molecule: CN(C(=O)c1ccccc1)c1ccc(CCCC(=O)[O-])cc1.[Na+] [Delivery agent 19]
AUC [1, 6]: 290106.4 pg·min/mL

Molecule: O=C(N[C@@H](Cc1ccccc1)C(=O)O)c1ccccc1O [Delivery agent 20]
AUC [1, 6]: 21948 pg·min/mL

Molecule: O=C([O-])Cc1ccc(NC(=O)c2ccccc2O)cc1.[Na+] [Delivery agent 21]
AUC [1, 6]: 57166 pg·min/mL

Molecule: COc1ccccc1C(=O)Nc1ccc(CCCC(=O)O)cc1 [Delivery agent 23]
AUC [1, 5]: 15747 pg·min/mL

Molecule: CN(C)c1ccc(C(=O)Nc2ccc(CCCC(=O)O)cc2)cc1 [Delivery agent 24]
AUC [1, 5]: 21559.2 pg·min/mL

Molecule: O=C(O)CCCCCCCOc1ccccc1O [Delivery agent 26]
AUC [1, 5]: 113480.1 pg·min/mL

Molecule: HVEGTFTSDVSSYLEEQAAKEFIAWLVKGRG [A]
AUC [1, 11]: 93635 pg·min/mL
Cmax [1, 11]: 3.781 ng/mL
Tmax [1, 11]: 10 ± 0 min
AUC ([1]; male, Sprague Dawley, in vivo, sc, GLP-1 compound alone, solution, subcutaneous control 0.011 mg/kg, read-out: AUC (converted)): 93600 pg·min/mL
Cmax ([1]; male, Sprague Dawley, in vivo, sc, GLP-1 compound alone, solution, subcutaneous control 0.011 mg/kg, read-out: Cmax): 3.78 ± 1.1 ng/mL
Tmax ([1]; male, Sprague Dawley, in vivo, sc, GLP-1 compound alone, solution, subcutaneous control 0.011 mg/kg, read-out: Tmax (converted)): 10 min

Now from value to molecule:

AUC ([1]; Peptide A 1.1 mg/kg + delivery agent 300 mg/kg, oral gavage, Klucel solution): 4789.7 pg·min/mL
AUC [1, 5]: 19304.1 pg·min/mL
Molecule: O=C(N[C@@H](Cc1ccccc1)C(=O)O)C1CCCCC1 (stereo in doubt) [Delivery agent 46]

AUC [1, 9]: 299137.2 pg·min/mL
Molecule: O=C(O)CCCCCCCOc1cccc(O)c1 [Delivery agent 27]

AUC [1, 5]: 59543 pg·min/mL
AUC [1, 6]: 13116 pg·min/mL
Molecule: CC(=O)c1ccccc1OCCCCCCCC(=O)O [Delivery agent 28]

AUC [1, 5]: 62303 pg·min/mL
Molecule: CC(=O)c1ccccc1OCCCCCCCC(=O)[O-].[Na+] [Delivery agent 29]

AUC [1, 5]: 35259 pg·min/mL
Molecule: CC(=O)c1ccccc1OCc1ccc(C(=O)O)cc1 [Delivery agent 30]

AUC [1, 5]: 30164 pg·min/mL
Molecule: CNC(=O)c1ccccc1OCCCCCCCC(=O)O [Delivery agent 31]

AUC [1, 6]: 130175.6 pg·min/mL
Molecule: O=C(O)CCCCCCCNC(=O)c1ccccn1 [Delivery agent 32]

AUC [1, 6]: 6964.2 pg·min/mL
Molecule: O=C(O)CCCCCCCNC(=O)c1ccncc1 [Delivery agent 34]

AUC [1, 5]: 42036 pg·min/mL
Molecule: O=C(O)CCCCCCCNS(=O)(=O)c1ccccc1 [Delivery agent 36]

AUC [1, 5]: 5669 pg·min/mL
Molecule: O=C(O)[C@@H](NS(=O)(=O)c1ccccc1)c1ccccc1 [Delivery agent 38]

AUC [1, 5]: 6087 pg·min/mL
Molecule: O=C(O)c1ccc(NS(=O)(=O)c2ccccc2)cc1 [Delivery agent 39]

AUC [1, 5]: 94215 pg·min/mL
AUC [1, 10]: 94215 ± 66732 pg·min/mL
Stability Data: delivery agent concentration ([3]; stored at 4° C. for three days): 135.1 mg/mL
Stability Data: delivery agent concentration [3, 7]: 135.3 mg/mL
Stability Data: delivery agent concentration [3, 8]: 134.0 mg/mL
solubility at the desired concentration of 150 mg/mL [4]: insoluble
solution concentration achieved ([4]; Milli-Q water, pH adjusted with 10 N NaOH, pH 8.22): 150 mg/mL
Molecule: O=C(O)CCCc1ccc(NS(=O)(=O)c2ccccc2)cc1 [Delivery agent 40]

AUC [1, 5]: 21679.1 pg·min/mL
Molecule: CN(c1ccc(CCCC(=O)O)cc1)S(=O)(=O)c1ccccc1 [Delivery agent 41]

AUC [1, 6]: 7281 pg·min/mL
Molecule: O=C(O)CCCCCCCNC(=O)C1CCCCC1 [Delivery agent 43]

AUC [1, 5]: 55671 pg·min/mL
Molecule: O=C(O)CCCc1ccc(NC(=O)C2CCCCC2)cc1 [Delivery agent 44]

AUC [1, 5]: 13468.0 pg·min/mL
Molecule: CC(C)C[C@H](NC(=O)C1CCCCC1)C(=O)O [Delivery agent 45]

AUC [1, 5]: 6068.5 pg·min/mL
Molecule: CC(C)[C@H](NC(=O)C1CCCCC1)C(=O)O [Delivery agent 48]

AUC [1, 5]: 10838 pg·min/mL
Molecule: O=C(O)CCCCCCCNC(=O)/C=C/c1ccccc1F [Delivery agent 51]

AUC [1, 6]: 337360 pg·min/mL
Molecule: O=C(O)CCCCCCc1nnc(-c2ccccc2)o1 [Delivery agent 53]

AUC [1, 9]: 218240.8 pg·min/mL
AUC [1, 6]: 684087.3 pg·min/mL
Molecule: O=C(O)CCCCc1nnc(-c2ccccc2O)o1 [Delivery agent 54]

AUC [1, 5]: 20177.7 pg·min/mL
Molecule: O=C(N[C@H](C(=O)O)c1ccccc1)c1ccccc1 [Delivery agent 55]

AUC [1, 5]: 48324.4 pg·min/mL
Molecule: O=C(N[C@@H](Cc1ccccc1)C(=O)O)c1ccccc1 [Delivery agent 56]
